From PubChem BioAssay AID330 (DTP/NCI, 2004)
Values joined by “and” are separate entries in the source; they are usually repeats but may differ in a detail not shown here. Identical values can stand only once. Inconclusive results and toxic doses are left out.

Tested on: P388 leukemia ip, CD2F1 mice, survival T/C
Experiment: NCI In Vivo Anticancer Drug Screen. Data for tumor model P388 Leukemia (intraperitoneal) in CD2F1 (CDF1) mice
Details: endpoint: median survival time, higher = longer survival
How it was run: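 Mice carrying the transplanted tumor received test compound or vehicle. Survival was recorded in each group, and the value is the treated-group measurement divided by that of the vehicle-treated control group.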

[1] = dose: 50.0 mg/kg/injection, schedule: Q01DX005 (ip), vehicle: saline with Tween-80
[2] = dose: 200.0 mg/kg/injection, schedule: Q01DX005 (ip), vehicle: saline with Tween-80
[3] = dose: 50.0 mg/kg/injection, schedule: Q01DX009 (ip), vehicle: saline
[4] = dose: 100.0 mg/kg/injection, schedule: Q01DX009 (ip), vehicle: saline
[5] = dose: 200.0 mg/kg/injection, schedule: Q01DX009 (ip), vehicle: saline
[6] = dose: 25.0 mg/kg/injection, schedule: Q01DX009 (ip), vehicle: saline with Tween-80
[7] = dose: 100.0 mg/kg/injection, schedule: Q04DX003 (ip), vehicle: saline with Tween-80
[8] = dose: 100.0 mg/kg/injection, schedule: Q01DX005 (ip), vehicle: saline with Tween-80
[9] = dose: 50.0 mg/kg/injection, schedule: Q01DX009 (ip), vehicle: saline with Tween-80
[10] = dose: 100.0 mg/kg/injection, schedule: Q01DX009 (ip), vehicle: saline with Tween-80
[11] = dose: 50.0 mg/kg/injection, schedule: Q01DX005 (ip), vehicle: Klucel (hydroxypropylcellulose) (HPC)
[12] = dose: 100.0 mg/kg/injection, schedule: Q01DX005 (ip), vehicle: Klucel (hydroxypropylcellulose) (HPC)

Cc1c2ccccc2c(C)c2c1cc(C(=O)O)c1ccccc12
T/C (dose: 25.0 mg/kg/injection, schedule: Q01DX005 (ip), vehicle: saline with Tween-80): 113 % of control | T/C [1]: 113 % of control and 116 % of control | T/C [2]: 124 % of control

CC1CCC[N-]C1.CC1CCC[N-]C1.CC1CCC[N-]C1.CC1CCC[N-]C1.[Cl][Rh][Cl] (centres undefined)
T/C (dose: 1.5 mg/kg/injection, schedule: Q01DX009 (ip), vehicle: saline): 122 % of control | T/C (dose: 6.0 mg/kg/injection, schedule: Q01DX009 (ip), vehicle: saline): 152 % of control

COC(=O)C1CSC2(CCCN(Cc3ccccc3)C2)N1 (centres undefined)
T/C [3]: 105 % of control | T/C [4]: 122 % of control | T/C [5]: 109 % of control

CCOC(=O)N1NC(=O)CC1(C)C
T/C (dose: 100.0 mg/kg/injection, schedule: Q01DX001 (ip), vehicle: saline): 95 % of control | T/C (dose: 200.0 mg/kg/injection, schedule: Q01DX001 (ip), vehicle: saline): 100 % of control | T/C (dose: 400.0 mg/kg/injection, schedule: Q01DX001 (ip), vehicle: saline): 90 % of control

CC(C(=O)O)c1ccc2c(c1)[nH]c1ccc(Cl)cc12 (centres undefined)
T/C (dose: 6.25 mg/kg/injection, schedule: Q01DX009 (ip), vehicle: saline with Tween-80): 106 % of control | T/C (dose: 12.5 mg/kg/injection, schedule: Q01DX009 (ip), vehicle: saline with Tween-80): 106 % of control | T/C [6]: 105 % of control

Nc1ccn(C2OC(COP(=O)(O)O)C(O)C2O)c(=O)n1 (centres undefined)
T/C [7]: 150 % of control | T/C (dose: 264.0 mg/kg/injection, schedule: Q04DX003 (ip), vehicle: saline with Tween-80): 181 % of control | T/C (dose: 400.0 mg/kg/injection, schedule: Q04DX003 (ip), vehicle: saline with Tween-80): 166 % of control and 177 % of control | T/C (dose: 600.0 mg/kg/injection, schedule: Q04DX003 (ip), vehicle: saline with Tween-80): 209 % of control

O=C(N/N=C/c1ccc(O)c(O)c1)c1ccccc1
T/C [1]: 109 % of control | T/C [8]: 118 % of control | T/C [2]: 119 % of control

CSCc1cccc(Cl)c1N
T/C [6]: 102 % of control | T/C [9]: 106 % of control | T/C [10]: 106 % of control

CCCCCCC[As](C)(=O)O
T/C (dose: 12.5 mg/kg/injection, schedule: Q01DX001 (ip), vehicle: Klucel (hydroxypropylcellulose) (HPC)): 104 % of control | T/C (dose: 25.0 mg/kg/injection, schedule: Q01DX001 (ip), vehicle: Klucel (hydroxypropylcellulose) (HPC)): 111 % of control | T/C (dose: 400.0 mg/kg/injection, schedule: Q01DX001 (ip), vehicle: Klucel (hydroxypropylcellulose) (HPC)): 96 % of control

C/C(N)=N\O
T/C [3]: 94 % of control | T/C [4]: 114 % of control | T/C [5]: 104 % of control

CC1=CC23C(=O)[C@@H](C=C(COC(=O)c4ccccc4)[C@@H](O)[C@]2(O)[C@H]1OC(=O)c1ccccc1)[C@H]1[C@@H](C[C@H]3C)C1(C)C
T/C (dose: 12.5 micrograms/kg/injection, schedule: Q01DX009 (ip), vehicle: saline with Tween-80): 113 % of control | T/C (dose: 25.0 micrograms/kg/injection, schedule: Q01DX009 (ip), vehicle: saline with Tween-80): 102 % of control | T/C (dose: 50.0 micrograms/kg/injection, schedule: Q01DX009 (ip), vehicle: saline with Tween-80): 106 % of control | T/C (dose: 100.0 micrograms/kg/injection, schedule: Q01DX009 (ip), vehicle: saline with Tween-80): 119 % of control | T/C (dose: 200.0 micrograms/kg/injection, schedule: Q01DX009 (ip), vehicle: saline with Tween-80): 113 % of control | T/C (dose: 281.0 micrograms/kg/injection, schedule: Q01DX009 (ip), vehicle: saline + alcohol): 108 % of control | T/C (dose: 468.0 micrograms/kg/injection, schedule: Q01DX009 (ip), vehicle: saline + alcohol): 89 % of control | T/C (dose: 780.0 micrograms/kg/injection, schedule: Q01DX009 (ip), vehicle: saline + alcohol): 89 % of control

Cc1ccc(/C=N\N=C\c2ccc(C)cc2)cc1
T/C [9]: 100 % of control | T/C (dose: 50.0 mg/kg/injection, schedule: Q04DX003 (ip), vehicle: saline with Tween-80): 91 % of control | T/C [10]: 90 % of control | T/C [7]: 87 % of control | T/C (dose: 200.0 mg/kg/injection, schedule: Q01DX009 (ip), vehicle: saline with Tween-80): 90 % of control | T/C (dose: 200.0 mg/kg/injection, schedule: Q04DX003 (ip), vehicle: saline with Tween-80): 91 % of control

C=C1CCC(Br)C2(C)CCC(C(C)(C)O)CC12 (centres undefined)
T/C (dose: 2.0 mg/kg/injection, schedule: Q01DX009 (ip), vehicle: Klucel (hydroxypropylcellulose) (HPC)): 100 % of control | T/C (dose: 4.0 mg/kg/injection, schedule: Q01DX009 (ip), vehicle: Klucel (hydroxypropylcellulose) (HPC)): 100 % of control | T/C (dose: 8.0 mg/kg/injection, schedule: Q01DX009 (ip), vehicle: Klucel (hydroxypropylcellulose) (HPC)): 98 % of control | T/C (dose: 16.0 mg/kg/injection, schedule: Q01DX009 (ip), vehicle: Klucel (hydroxypropylcellulose) (HPC)): 99 % of control

ICCN(CCI)c1ccc2c(ccc3ccccc32)c1
T/C (dose: 100.0 mg/kg/injection, schedule: Q04DX003 (ip), vehicle: Klucel (hydroxypropylcellulose) (HPC)): 102 % of control | T/C (dose: 200.0 mg/kg/injection, schedule: Q04DX003 (ip), vehicle: Klucel (hydroxypropylcellulose) (HPC)): 118 % of control | T/C (dose: 400.0 mg/kg/injection, schedule: Q04DX003 (ip), vehicle: Klucel (hydroxypropylcellulose) (HPC)): 118 % of control

COc1cc2c(c(O)c1O)C(=O)c1c(O)cc(C)cc1C2=O
T/C (dose: 5.0 mg/kg/injection, schedule: Q01DX009 (ip), vehicle: saline with Tween-80): 108 % of control | T/C (dose: 10.0 mg/kg/injection, schedule: Q01DX009 (ip), vehicle: saline with Tween-80): 117 % of control | T/C (dose: 20.0 mg/kg/injection, schedule: Q01DX009 (ip), vehicle: saline with Tween-80): 108 % of control

Cc1c2cc3c(cc2cc2c4cc5c(cc4cc[n+]12)OCO5)OCO3 (tested in a mixture with another compound)
T/C (dose: 0.44 mg/kg/injection, schedule: Q04DX003 (ip), vehicle: saline): 122 % of control | T/C (dose: 5.0 mg/kg/injection, schedule: Q04DX003 (ip), vehicle: saline): 154 % of control | T/C (dose: 7.5 mg/kg/injection, schedule: Q04DX003 (ip), vehicle: saline): 150 % of control

NCC1CC2c3ccccc3C1c1ccccc12 (centres undefined)
T/C (dose: 12.5 mg/kg/injection, schedule: Q01DX005 (ip), vehicle: Klucel (hydroxypropylcellulose) (HPC)): 103 % of control | T/C (dose: 25.0 mg/kg/injection, schedule: Q01DX005 (ip), vehicle: Klucel (hydroxypropylcellulose) (HPC)): 97 % of control | T/C [11]: 99 % of control and 95 % of control | T/C [12]: 106 % of control

CCNC(=O)N1CC(=O)Nc2ccccc21
T/C [1]: 101 % of control | T/C [8]: 96 % of control

COC(=O)C(=C\c1nc2ccc([N+](=O)[O-])cc2s1)/C(C(=O)OC)=C1\CCCN1C
T/C (dose: 50.0 mg/kg/injection, schedule: Q01DX005 (ip), vehicle: saline): 100 % of control | T/C (dose: 100.0 mg/kg/injection, schedule: Q01DX005 (ip), vehicle: saline): 97 % of control | T/C (dose: 200.0 mg/kg/injection, schedule: Q01DX005 (ip), vehicle: saline): 97 % of control

O=C1OCC23CC(=O)C(O)(c4oc(CO)cc(=O)c4O)C(CC12)O3 (centres undefined)
T/C [6]: 97 % of control | T/C [9]: 100 % of control | T/C [10]: 100 % of control

COC(=O)N1c2ccccc2N(C(=O)OC)c2c1oc1ccccc1c2=O
T/C (dose: 60.0 mg/kg/injection, schedule: Q01DX005 (ip), vehicle: saline with Tween-80): 92 % of control | T/C (dose: 120.0 mg/kg/injection, schedule: Q01DX005 (ip), vehicle: saline with Tween-80): 91 % of control | T/C (dose: 240.0 mg/kg/injection, schedule: Q01DX005 (ip), vehicle: saline with Tween-80): 101 % of control

C=C(C)C(=O)OCCC[Si](OCCOC)(OCCOC)OCCOC
T/C [3]: 95 % of control | T/C [4]: 95 % of control | T/C [5]: 106 % of control

O=C(N/N=C\c1ccccc1O)c1cccc2ccccc12
T/C [11]: 99 % of control | T/C [12]: 99 % of control | T/C (dose: 200.0 mg/kg/injection, schedule: Q01DX005 (ip), vehicle: Klucel (hydroxypropylcellulose) (HPC)): 102 % of control

CCOc1ccc(Nc2ncnc3nc[nH]c23)cc1CN(CCCl)CCCl
T/C (dose: 0.88 mg/kg/injection, schedule: Q01DX009 (ip), vehicle: saline): 154 % of control | T/C (dose: 2.0 mg/kg/injection, schedule: Q01DX009 (ip), vehicle: saline): 159 % of control | T/C (dose: 3.0 mg/kg/injection, schedule: Q01DX009 (ip), vehicle: saline): 122 % of control

CC1(C)C(=O)c2ccccc2-c2ccccc21
T/C [1]: 101 % of control | T/C [8]: 104 % of control | T/C [2]: 103 % of control
